Experimental findings from ChEMBL document CHEMBL1201862, “PubChem BioAssay data set” (2004) are described below.

Common to all, as to type: functional
The target in assay [1] is Receptor tyrosine-protein kinase erbB-4 (Homo sapiens, UniProt Q15303).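 Note: ERBB4 member of a kinome-wide kinase profiling panel.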
Assay [2] concerns the target Serine/threonine-protein kinase 3 (Homo sapiens, UniProt Q13188).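 Note: measured as one member of a kinome-wide kinase panel.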
Assay [3] concerns the target Mitogen-activated protein kinase kinase kinase kinase 5 (Homo sapiens, UniProt Q9Y4K4).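 Note: measured as one member of a kinome-spanning kinase panel.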
Assay [4] addresses Protein kinase C iota type (Homo sapiens, UniProt P41743).
In assay [5] the target is Tyrosine-protein kinase SYK (Homo sapiens, UniProt P43405).
Assay [6] has as its target BDNF/NT-3 growth factors receptor (Homo sapiens, UniProt Q16620).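 Note: NTRK2 measured as one member of a broad kinome-wide kinase profiling panel.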
The target in assay [7] is MAP kinase-activated protein kinase 2 (Homo sapiens, UniProt P49137).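 Note: measured as one member of a kinome-wide kinase panel.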
Assay [8] concerns the target Tyrosine-protein kinase ABL1 (Homo sapiens, UniProt P00519).
Assay [9] addresses MAP kinase-activated protein kinase 3 (Homo sapiens, UniProt Q16644).
Assay [10] addresses Cyclin-dependent kinase 7 (Homo sapiens, UniProt P50613).
Assay [11] deals with Macrophage colony-stimulating factor 1 receptor (Homo sapiens, UniProt P07333).
The target in assay [12] is Cyclin-dependent kinase 19 (Homo sapiens, UniProt Q9BWU1). Description: Navigating the Kinome. Panel member name: CDC2L6.
Assay [13] concerns the target Cyclin-dependent kinase 2 (Homo sapiens, UniProt P24941).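 Note: CDK2 measured as one member of a broad kinome profiling panel.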
The target in assay [14] is Glycogen synthase kinase-3 beta (Homo sapiens, UniProt P49841).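 Note: value comes from a broad kinome profiling panel, with GSK3B as the panel member.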
The target of assay [15] is Cyclin-dependent kinase 1 (Homo sapiens, UniProt P06493).
The target in assay [16] is Mitogen-activated protein kinase 13 (Homo sapiens, UniProt O15264).
Assay [17] has as its target cGMP-dependent protein kinase 1 (Homo sapiens, UniProt Q13976).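 Note: value from a kinome panel screen with PRKG1 as the panel member.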
Assay [18] concerns the target Calcium/calmodulin-dependent protein kinase type II subunit delta (Homo sapiens, UniProt Q13557).
For assay [19], the target named is Receptor-type tyrosine-protein kinase FLT3 (Homo sapiens, UniProt P36888).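 Note: FLT3 was tested as one member of a kinome-wide kinase panel.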
In assay [20] the target is Platelet-derived growth factor receptor alpha (Homo sapiens, UniProt P16234). Description: Navigating the Kinome. Panel member name: PDGFRA.
In assay [21] the target is Fibroblast growth factor receptor 1 (Homo sapiens, UniProt P11362).
Another assay has as its target Misshapen-like kinase 1 (Homo sapiens, UniProt Q8N4C8).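 Note: kinome panel screen with MINK as the panel member.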
Assay [22] deals with Mitogen-activated protein kinase 9 (Homo sapiens, UniProt P45984).
In assay [23] the target is Glycogen synthase kinase-3 alpha (Homo sapiens, UniProt P49840).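 Note: GSK3A result taken from a broad kinome-wide kinase panel.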
In assay [24] the target is Mitogen-activated protein kinase 14 (Homo sapiens, UniProt Q16539).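 Note: part of a kinome-wide panel, MAPK14 entry.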
The target in assay [25] is Dual specificity protein kinase CLK2 (Homo sapiens, UniProt P49760).
The target in assay [26] is Tyrosine-protein kinase receptor TYRO3 (Homo sapiens, UniProt Q06418).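 Note: TYRO3 value obtained as one member of a kinome-wide profiling panel.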
In another assay the target is Activated CDC42 kinase 1 (Homo sapiens, UniProt Q07912). Nature of the assay: Navigating the Kinome. Panel member name: ACK1.
Assay [27] addresses Protein kinase C delta type (Homo sapiens, UniProt Q05655).
In assay [28] the target is Serine/threonine-protein kinase pim-3 (Homo sapiens, UniProt Q86V86).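 Note: value obtained as one member of a broad kinase panel profiling effort.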
Another assay deals with Aurora kinase B (Homo sapiens, UniProt Q96GD4).
For assay [29], the target named is RAC-alpha serine/threonine-protein kinase (Homo sapiens, UniProt P31749).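 Note: AKT1 affinity measured as one member of a kinome-wide kinase profiling panel.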
In assay [30] the target is Serine/threonine-protein kinase 17A (Homo sapiens, UniProt Q9UEE5).
The target in assay [31] is Phosphorylase b kinase gamma catalytic chain, liver/testis isoform (Homo sapiens, UniProt P15735).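 Note: PHKG2 measured as one member of a kinome-wide kinase panel.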
A further assay concerns the target T1, Aurora kinase A (Homo sapiens, UniProt O14965).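 Note: value from the Navigating the Kinome kinase panel profiling, panel entry STK6.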
T1 sequence (O14965 whole entry): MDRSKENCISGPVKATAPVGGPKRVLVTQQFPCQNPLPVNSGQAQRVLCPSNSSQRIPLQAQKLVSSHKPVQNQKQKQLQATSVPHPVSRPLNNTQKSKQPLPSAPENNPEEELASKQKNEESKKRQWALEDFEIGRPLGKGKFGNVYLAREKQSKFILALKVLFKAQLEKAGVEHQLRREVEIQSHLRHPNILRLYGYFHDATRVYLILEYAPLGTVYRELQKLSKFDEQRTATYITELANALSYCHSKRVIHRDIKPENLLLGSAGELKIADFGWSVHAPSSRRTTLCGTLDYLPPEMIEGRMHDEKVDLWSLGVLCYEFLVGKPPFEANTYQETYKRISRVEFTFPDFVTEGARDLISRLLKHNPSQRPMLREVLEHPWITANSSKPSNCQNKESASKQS

Assay [32] addresses Vascular endothelial growth factor receptor 1 (Homo sapiens, UniProt P17948).
In assay [33] the target is Protein kinase C zeta type (Homo sapiens, UniProt Q05513).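 Note: measured as one member of a broad kinase profiling panel.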
Assay [34] concerns the target Dual specificity mitogen-activated protein kinase kinase 1 (Homo sapiens, UniProt Q02750). Nature of the assay: Navigating the Kinome. Panel member name: MAP2K1.
The target of assay [35] is Megakaryocyte-associated tyrosine-protein kinase (Homo sapiens, UniProt P42679).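 Note: affinity measured as one member of a kinase panel (Navigating the Kinome) against MATK.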
The target in assay [36] is Lymphokine-activated killer T-cell-originated protein kinase (Homo sapiens, UniProt Q96KB5).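 Note: value comes from a kinase panel screen in which TOPK was one of the panel members.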
Assay [37] concerns the target Dual specificity tyrosine-phosphorylation-regulated kinase 1A (Homo sapiens, UniProt Q13627).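 Note: measured against DYRK1A as one member of a broad kinome profiling panel.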
Assay [38] can be described thus: loss of viability in HepG2 cells – cell-based, CellTiter-Glo, cherry-picked, cytotoxicity control for Shn3 inhibitor project, dose response (AID 624134). A general note: Cellular ATP, detected with luciferase, serves as a proxy for viable cell number.

Calls of active or inactive are those of the source.

Chain of Glycogen synthase kinase-3 alpha (P49840 whole entry): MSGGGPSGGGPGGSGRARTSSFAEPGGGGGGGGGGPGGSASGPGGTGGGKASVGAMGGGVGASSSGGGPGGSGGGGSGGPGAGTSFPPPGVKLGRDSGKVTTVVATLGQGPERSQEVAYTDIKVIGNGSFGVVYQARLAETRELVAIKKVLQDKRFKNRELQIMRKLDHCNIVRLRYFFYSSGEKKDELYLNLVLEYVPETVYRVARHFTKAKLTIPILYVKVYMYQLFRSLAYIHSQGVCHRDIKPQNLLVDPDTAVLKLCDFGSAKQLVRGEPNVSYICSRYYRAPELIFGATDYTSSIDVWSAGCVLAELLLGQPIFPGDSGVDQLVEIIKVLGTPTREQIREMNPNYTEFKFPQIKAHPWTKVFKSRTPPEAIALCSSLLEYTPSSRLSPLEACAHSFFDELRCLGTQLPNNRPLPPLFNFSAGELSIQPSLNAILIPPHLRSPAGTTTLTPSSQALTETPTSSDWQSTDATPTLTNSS
Chain of Serine/threonine-protein kinase 3 (Q13188 whole entry): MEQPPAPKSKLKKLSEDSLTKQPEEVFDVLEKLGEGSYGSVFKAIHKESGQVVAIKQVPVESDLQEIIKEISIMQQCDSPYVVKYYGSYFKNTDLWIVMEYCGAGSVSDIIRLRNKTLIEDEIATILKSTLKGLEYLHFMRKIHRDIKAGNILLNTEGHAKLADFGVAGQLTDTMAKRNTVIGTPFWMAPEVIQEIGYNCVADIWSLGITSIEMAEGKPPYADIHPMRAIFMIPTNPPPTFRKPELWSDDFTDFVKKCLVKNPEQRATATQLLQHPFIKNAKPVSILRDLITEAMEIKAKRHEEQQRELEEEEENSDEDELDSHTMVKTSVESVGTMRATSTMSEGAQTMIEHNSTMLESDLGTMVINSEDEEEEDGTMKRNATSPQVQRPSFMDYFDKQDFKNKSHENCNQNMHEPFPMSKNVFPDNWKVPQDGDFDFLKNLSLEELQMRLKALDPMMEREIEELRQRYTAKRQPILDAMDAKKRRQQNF
Chain of Misshapen-like kinase 1 (Q8N4C8 whole entry): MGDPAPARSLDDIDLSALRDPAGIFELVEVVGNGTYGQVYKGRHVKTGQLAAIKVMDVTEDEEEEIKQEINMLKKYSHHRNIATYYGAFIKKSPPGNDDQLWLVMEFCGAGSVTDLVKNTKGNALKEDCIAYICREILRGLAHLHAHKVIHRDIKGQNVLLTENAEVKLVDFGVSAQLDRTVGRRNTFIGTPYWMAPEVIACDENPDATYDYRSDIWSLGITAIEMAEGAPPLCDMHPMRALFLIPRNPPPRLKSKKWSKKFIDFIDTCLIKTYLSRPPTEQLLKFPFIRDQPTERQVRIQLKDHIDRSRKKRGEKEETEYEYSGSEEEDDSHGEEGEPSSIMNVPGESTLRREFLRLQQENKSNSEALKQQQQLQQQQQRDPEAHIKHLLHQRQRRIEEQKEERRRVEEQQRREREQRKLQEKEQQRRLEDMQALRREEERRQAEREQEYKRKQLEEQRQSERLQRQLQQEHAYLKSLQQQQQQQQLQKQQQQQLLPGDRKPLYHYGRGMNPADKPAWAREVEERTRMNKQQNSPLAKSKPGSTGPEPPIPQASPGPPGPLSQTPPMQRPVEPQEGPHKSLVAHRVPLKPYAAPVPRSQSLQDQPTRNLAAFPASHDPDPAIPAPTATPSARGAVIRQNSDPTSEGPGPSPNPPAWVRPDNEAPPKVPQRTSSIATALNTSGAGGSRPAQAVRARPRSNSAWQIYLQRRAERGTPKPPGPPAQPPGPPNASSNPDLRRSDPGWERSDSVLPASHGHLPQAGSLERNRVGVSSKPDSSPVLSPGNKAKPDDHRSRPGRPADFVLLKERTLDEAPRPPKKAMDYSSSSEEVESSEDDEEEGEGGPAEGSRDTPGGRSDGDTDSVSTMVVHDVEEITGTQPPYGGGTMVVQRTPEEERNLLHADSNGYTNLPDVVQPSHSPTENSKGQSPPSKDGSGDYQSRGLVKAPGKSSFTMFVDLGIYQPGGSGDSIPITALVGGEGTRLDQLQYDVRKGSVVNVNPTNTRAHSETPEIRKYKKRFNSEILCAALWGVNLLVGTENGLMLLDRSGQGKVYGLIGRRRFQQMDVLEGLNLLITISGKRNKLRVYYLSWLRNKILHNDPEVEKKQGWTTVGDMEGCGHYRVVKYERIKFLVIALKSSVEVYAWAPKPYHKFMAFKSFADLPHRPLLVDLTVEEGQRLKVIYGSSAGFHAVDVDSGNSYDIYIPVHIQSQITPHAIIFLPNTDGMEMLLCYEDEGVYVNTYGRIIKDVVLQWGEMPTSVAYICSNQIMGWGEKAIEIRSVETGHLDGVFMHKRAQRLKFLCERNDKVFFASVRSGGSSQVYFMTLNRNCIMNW
Chain of Vascular endothelial growth factor receptor 1 (P17948 whole entry): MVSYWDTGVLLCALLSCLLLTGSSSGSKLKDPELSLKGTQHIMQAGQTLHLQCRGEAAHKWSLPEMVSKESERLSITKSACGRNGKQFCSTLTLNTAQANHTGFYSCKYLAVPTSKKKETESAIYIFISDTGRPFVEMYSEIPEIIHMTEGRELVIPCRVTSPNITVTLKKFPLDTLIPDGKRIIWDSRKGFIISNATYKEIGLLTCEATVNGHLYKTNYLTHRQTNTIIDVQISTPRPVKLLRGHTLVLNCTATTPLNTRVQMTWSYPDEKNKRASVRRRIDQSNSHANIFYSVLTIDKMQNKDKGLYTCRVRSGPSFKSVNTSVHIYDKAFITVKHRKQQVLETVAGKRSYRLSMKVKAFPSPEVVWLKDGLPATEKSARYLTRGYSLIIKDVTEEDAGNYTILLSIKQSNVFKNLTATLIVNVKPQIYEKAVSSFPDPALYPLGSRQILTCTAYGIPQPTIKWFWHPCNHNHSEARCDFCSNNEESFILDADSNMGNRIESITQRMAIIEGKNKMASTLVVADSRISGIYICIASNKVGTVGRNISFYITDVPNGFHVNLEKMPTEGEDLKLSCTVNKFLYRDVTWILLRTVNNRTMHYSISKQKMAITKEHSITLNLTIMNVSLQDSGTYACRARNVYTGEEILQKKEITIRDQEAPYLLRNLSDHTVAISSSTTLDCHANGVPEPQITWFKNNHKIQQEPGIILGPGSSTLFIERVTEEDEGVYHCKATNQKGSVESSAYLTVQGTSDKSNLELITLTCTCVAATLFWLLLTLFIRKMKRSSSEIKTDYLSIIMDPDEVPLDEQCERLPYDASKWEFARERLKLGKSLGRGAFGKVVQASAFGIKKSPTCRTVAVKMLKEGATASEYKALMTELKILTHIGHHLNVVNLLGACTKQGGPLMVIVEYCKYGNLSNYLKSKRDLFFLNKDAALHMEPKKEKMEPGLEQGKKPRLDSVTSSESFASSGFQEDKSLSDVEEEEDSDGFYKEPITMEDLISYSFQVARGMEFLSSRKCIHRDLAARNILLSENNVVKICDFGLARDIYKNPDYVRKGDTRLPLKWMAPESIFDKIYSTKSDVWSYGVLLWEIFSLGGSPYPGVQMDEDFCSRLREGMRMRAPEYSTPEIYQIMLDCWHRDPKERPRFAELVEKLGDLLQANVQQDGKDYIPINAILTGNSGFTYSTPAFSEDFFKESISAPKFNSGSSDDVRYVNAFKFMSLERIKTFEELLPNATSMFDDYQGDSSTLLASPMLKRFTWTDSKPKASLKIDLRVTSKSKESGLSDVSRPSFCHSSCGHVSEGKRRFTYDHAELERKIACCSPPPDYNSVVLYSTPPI
Chain of Dual specificity mitogen-activated protein kinase kinase 1 (Q02750 whole entry): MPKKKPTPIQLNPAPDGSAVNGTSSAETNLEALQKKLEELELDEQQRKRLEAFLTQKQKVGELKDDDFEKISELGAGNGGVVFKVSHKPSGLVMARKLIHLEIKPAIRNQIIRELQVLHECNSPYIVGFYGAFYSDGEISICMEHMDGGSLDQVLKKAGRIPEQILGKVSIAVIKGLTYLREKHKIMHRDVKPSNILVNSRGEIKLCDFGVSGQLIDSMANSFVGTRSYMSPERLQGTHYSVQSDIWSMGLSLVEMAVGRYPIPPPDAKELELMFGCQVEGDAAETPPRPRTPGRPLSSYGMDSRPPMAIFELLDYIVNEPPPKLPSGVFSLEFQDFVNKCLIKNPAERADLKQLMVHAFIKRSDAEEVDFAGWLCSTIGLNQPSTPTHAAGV
Chain of Cyclin-dependent kinase 7 (P50613 whole entry): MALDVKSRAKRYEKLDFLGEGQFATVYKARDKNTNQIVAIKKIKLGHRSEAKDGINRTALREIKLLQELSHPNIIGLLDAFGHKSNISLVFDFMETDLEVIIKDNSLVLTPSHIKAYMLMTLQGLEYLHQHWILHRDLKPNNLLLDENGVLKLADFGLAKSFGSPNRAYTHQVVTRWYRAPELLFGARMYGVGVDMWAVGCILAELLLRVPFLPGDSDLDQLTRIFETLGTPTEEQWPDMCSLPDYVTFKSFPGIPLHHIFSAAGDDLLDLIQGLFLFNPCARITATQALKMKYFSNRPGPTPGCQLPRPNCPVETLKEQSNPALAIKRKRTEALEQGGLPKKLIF
Chain of Aurora kinase B (Q96GD4 whole entry): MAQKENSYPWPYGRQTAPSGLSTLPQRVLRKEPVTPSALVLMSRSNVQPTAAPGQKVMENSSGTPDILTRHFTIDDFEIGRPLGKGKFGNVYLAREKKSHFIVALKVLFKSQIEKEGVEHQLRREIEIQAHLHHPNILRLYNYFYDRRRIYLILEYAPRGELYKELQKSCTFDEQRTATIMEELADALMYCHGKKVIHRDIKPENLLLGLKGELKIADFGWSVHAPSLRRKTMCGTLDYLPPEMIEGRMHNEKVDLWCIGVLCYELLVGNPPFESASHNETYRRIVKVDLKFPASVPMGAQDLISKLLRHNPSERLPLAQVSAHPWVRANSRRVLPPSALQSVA
Chain of Lymphokine-activated killer T-cell-originated protein kinase (Q96KB5 whole entry): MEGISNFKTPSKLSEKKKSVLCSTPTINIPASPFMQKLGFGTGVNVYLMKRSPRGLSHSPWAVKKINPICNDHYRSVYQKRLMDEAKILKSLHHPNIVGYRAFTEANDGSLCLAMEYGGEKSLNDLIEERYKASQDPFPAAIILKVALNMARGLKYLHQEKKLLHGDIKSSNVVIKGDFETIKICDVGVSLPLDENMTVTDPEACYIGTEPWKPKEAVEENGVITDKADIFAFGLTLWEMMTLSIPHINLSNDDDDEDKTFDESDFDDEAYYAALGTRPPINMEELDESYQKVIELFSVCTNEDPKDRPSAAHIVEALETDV

What is called Ki is a measure of affinity in units of concentration, obtained from inhibition or displacement. Regarding `CS(=O)(=O)N(Cc1ccc2[nH]c(=O)c3cccn3c2c1)C1CC1`, the Ki was > 3.98 µM (inactive) in [1]; > 7.94 µM (inactive) in assay [2]; 1.58 µM (active) in assay [3]; > 5.01 µM (inactive) in assay [4]; 0.316 µM (active) in [5]; > 3.98 µM (inactive) in assay [6]. For the same compound, the Ki in assay [7] was 0.0794 µM (active); in [8], > 1.58 µM (inactive); in assay [9], 0.0501 µM (active); in assay [10] it was > 3.98 µM (inactive); in assay [11], > 1.58 µM (inactive); in assay [12], > 100 µM (inactive). Also, the Ki in [13] was > 7.94 µM (inactive); in [14], > 2 µM (inactive); in [15] it was > 7.94 µM (inactive); in assay [16] it was 0.251 µM (active); in assay [17], 0.251 µM (active); in assay [18], 0.251 µM (active). In addition, the Ki in [19] was > 2.51 µM (inactive); in assay [20], > 2.51 µM (inactive); in [21], > 3.98 µM (inactive); at Misshapen-like kinase 1, > 7.94 µM (inactive); in assay [22], > 3.98 µM (inactive); in assay [23], > 2 µM (inactive). For the same compound, the Ki was > 3.98 µM (inactive) in assay [24]; > 6.31 µM (inactive) in assay [25]; > 1.58 µM (inactive) in assay [26]; > 3.98 µM (inactive) at Activated CDC42 kinase 1; > 7.94 µM (inactive) in [27]; 2.51 µM (active) in assay [28]. Besides, the Ki at Aurora kinase B was > 1.26 µM (inactive); in assay [29], 0.0316 µM (active); in assay [30], > 3.98 µM (inactive); in [31], 2 µM (active); on Aurora kinase A, > 0.794 µM (inactive); in [32], > 2 µM (inactive). The Ki in assay [33] was > 7.94 µM (inactive); in [34], > 3.16 µM (inactive); in assay [35], 0.0794 µM (active); in assay [36], 2 µM (active); in [37], > 3.98 µM (inactive).

`O=C(Nc1n[nH]c2ccc(-c3cn(Cc4ccccc4)nn3)cc12)c1cc(F)ccc1F`: the Ki is > 3.16 µM (inactive) in assay [2]; 0.794 µM (active) in assay [3]; > 1.58 µM (inactive) in assay [5]; > 3.98 µM (inactive) in [6]; > 2.51 µM (inactive) in assay [8]; 0.2 µM (active) in [10]. The Ki was > 2.51 µM (inactive) in assay [11]; 0.002 µM (active) in [14]; > 3.16 µM (inactive) in assay [18]; > 2 µM (inactive) in [19]; > 2.51 µM (inactive) in [20]; > 3.98 µM (inactive) in assay [21]. The Ki was > 2.51 µM (inactive) at Misshapen-like kinase 1; 1 µM (active) in assay [22]; 0.00398 µM (active) in assay [23]; > 3.98 µM (inactive) in assay [24]; 0.126 µM (active) in [25]; > 3.16 µM (inactive) in assay [26]. Further, the Ki is > 3.98 µM (inactive) at Activated CDC42 kinase 1; > 3.98 µM (inactive) on Aurora kinase B; 0.2 µM (active) in [30]; > 1.58 µM (inactive) at Aurora kinase A; > 3.98 µM (inactive) in assay [32]; > 3.16 µM (inactive) in [34]. Also, the Ki in assay [37] was 0.0501 µM (active).

What is called AC50 is the midpoint of the concentration-response curve, whichever way the signal moves. Take `Cc1cc(NC(c2ccc(Cl)cc2)c2ccc3cccnc3c2O)no1` (configuration not stated): the AC50 in assay [38] is 1.27 µM (active).
